Measured values as given in article PMC6147116 (Journal of Enzyme Inhibition and Medicinal Chemistry, 2018).
Like-named read-outs stand apart in the source and are kept apart here.

Experiments:
steroid sulfatase (STS) [1] = biological target: T1, steroid sulfatase (STS) (Homo sapiens, UniProt P08842); assay: STS inhibition reversibility test (preincubation with placental microsomes, 50-fold dilution); format: biochemical; details: preincubation 7a 1.5 μM, 16c 10 μM; for STS binding reversibility: 50-fold dilution, 20 min secondary incubation
T1 construct: from tissue; host or cells: human term placenta, microsomal fraction
T1 sequence (P08842 22-583): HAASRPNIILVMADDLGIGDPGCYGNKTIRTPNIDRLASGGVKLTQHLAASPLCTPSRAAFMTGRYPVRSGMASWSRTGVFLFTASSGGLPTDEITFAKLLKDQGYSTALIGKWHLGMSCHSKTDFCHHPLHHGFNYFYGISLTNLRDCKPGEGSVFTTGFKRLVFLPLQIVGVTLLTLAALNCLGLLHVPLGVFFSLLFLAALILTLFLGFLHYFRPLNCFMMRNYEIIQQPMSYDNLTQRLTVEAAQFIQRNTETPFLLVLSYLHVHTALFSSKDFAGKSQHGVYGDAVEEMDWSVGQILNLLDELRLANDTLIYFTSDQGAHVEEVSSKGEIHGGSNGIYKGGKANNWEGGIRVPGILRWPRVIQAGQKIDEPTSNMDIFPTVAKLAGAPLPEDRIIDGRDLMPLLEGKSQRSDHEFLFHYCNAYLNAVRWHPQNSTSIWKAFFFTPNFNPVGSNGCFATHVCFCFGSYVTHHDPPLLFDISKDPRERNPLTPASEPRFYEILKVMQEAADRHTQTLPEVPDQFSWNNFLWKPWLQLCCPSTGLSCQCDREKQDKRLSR

steroid sulfatase (STS) [2] = biological target: T1, steroid sulfatase (STS); assay: STS inhibition, in vitro radiosubstrate incubation (release of E1 from E1S), human placental microsomes; Dixon kinetic analysis; format: biochemical; details: for STS inhibition mechanism: Dixon's plots; for IC50: E1S substrate 1.0 µM, read-out: STS IC50 ± SD; for Ki: from Dixon plot
Protocol: (§1) Enzyme inhibition studies were performed by in vitro radiosubstrate incubations using human term placenta cytosol and microsomas as enzyme sources. […] Relative conversions compared to non-inhibited controls (100%) were measured in the presence of 10 µM concentration of the test compound. […] Mechanistic and kinetic investigations were performed and inhibitory constants (Ki) were determined for selected compounds.
Kinetic analyses of selected compounds 7a and 16c were performed by measurement of enzyme activities using different fixed substrate concentrations and varied inhibitor concentrations.
(§2) Enzymatic incubations were carried out in the HEPES buffer medium at a final volume of 200
(§3) µl. The substrate was added to the incubate in 20 µl of a 25 v/v% propylene glycol in HEPES buffer solution, whereas test compounds were applied in 10 µl of dimethyl sulfoxide solution.
(§4) Incubations were performed at 37 °C and terminated by cooling and the addition of organic solvents of the subsequent extraction procedure. Control samples with no inhibitor and blank samples were incubated simultaneously. […]
The incubation time was 2.5 min. […]
(§5) In the general procedure, incubations were performed as described. Concentrations of the substrates were 1.0 µM, and the test compounds were applied at 10 µM final concentration in the incubate. Relative conversions compared to non-inhibited controls (100%) were determined. The assays were performed in triplicate, and the mean value and the standard deviation (SD) were calculated. […]
(§6) these cases, conversions were measured at 10–15 different concentrations in the appropriate interval between 0.001–50 µM. IC50 results were calculated by using unweighted iterative least squares logistic curve fitting by means of the “absolute IC50 calculation“ function of the GraphPad Prism 4.0 software (GraphPad Software, Inc., San Diego, CA, USA).
(§7) Kinetic analyses were performed via measurement of the enzymatic transformation using different fixed substrate concentrations and varied inhibitor concentrations. The Dixon’s linear transformation (1/velocity vs. inhibitor concentration) was applied for evaluation and the inhibition constant (Ki) was determined from abscissa of intersection of the lines of different substrate concentrations. Mechanism of binding was identified according to the Dixon’s graphs and the secondary plot of slopes of the Dixon’s lines vs. 1/substrate […]
The inhibitor compounds were preincubated with the appropriate placenta fraction in a volume of 4.0 µl at 37 °C for various time periods (2.5-40 min). Following this procedure, […]

human aromatase = biological target: T2, human aromatase (Homo sapiens, UniProt P11511); assay: Aromatase inhibition, in vitro radiosubstrate incubation (testosterone to E2 conversion), human placental microsomes; format: biochemical; details: for remaining activity at 10 µM: 10 µM test compound, non-inhibited control 100%, mean ± SD, n = 3, read-out: Arom Rel.conv. ± SD
T2 construct: from tissue; host or cells: human term placenta, microsomal fraction
T2 sequence (P11511 1-503): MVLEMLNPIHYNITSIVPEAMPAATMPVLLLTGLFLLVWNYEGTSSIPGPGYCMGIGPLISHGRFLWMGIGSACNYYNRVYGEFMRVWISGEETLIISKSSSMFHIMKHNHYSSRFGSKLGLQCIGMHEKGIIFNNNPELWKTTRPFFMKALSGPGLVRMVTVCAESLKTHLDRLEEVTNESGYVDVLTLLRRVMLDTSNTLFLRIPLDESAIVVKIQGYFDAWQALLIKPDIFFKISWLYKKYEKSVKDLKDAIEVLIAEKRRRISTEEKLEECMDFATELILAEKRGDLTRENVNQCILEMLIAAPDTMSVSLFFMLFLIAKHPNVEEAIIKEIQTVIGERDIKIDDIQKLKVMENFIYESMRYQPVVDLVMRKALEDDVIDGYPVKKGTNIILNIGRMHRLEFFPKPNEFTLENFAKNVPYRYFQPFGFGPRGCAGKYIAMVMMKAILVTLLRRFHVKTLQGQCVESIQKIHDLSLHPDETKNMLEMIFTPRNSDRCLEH
Protocol: as §1, §2, §3
as §4, with “simultaneously. The radioactivity of the products formed was measured by means of liquid scintillation counting (LSC) and taken as indicator of the” for “simultaneously.”
In the aromatase assays the microsoma suspension was incubated with appropriate concentration of unlabelled testosterone (2) substrate spiked with [1,2,6,7-3H]testosterone tracer, and in the presence of 0.1 mM NADPH cofactor excess. (In this case, solution of the substrate was prepared with acetonitrile instead of propylene glycol.) Incubation time was 40 min. The incubation mixture was extracted with toluene, then the toluene phase was drained and washed with HEPES buffer. Aromatase products containing phenolic hydroxy group were extracted with 1.2 M sodium hydroxide solution from the toluene extract and the alkaline phase was measured in the LSC. […]
was extracted with toluene. […]
as §5, §6
as §7, with “the” for “the Dixon’s graphs and the secondary plot of slopes of the Dixon’s lines vs. 1/substrate”

[3] = biological target: T3, 17β-hydroxysteroid dehydrogenase type 1 (17β-HSD1) (Homo sapiens, UniProt P14061); assay: 17β-HSD1 inhibition, in vitro radiosubstrate incubation (E1 to E2), human placental cytosol; Dixon kinetic analysis; format: biochemical; details: for IC50: E1 substrate 1.0 µM, NADPH excess, read-out: 17β-HSD1 IC50 ± SD; for 17β-HSD1 inhibition mechanism: Dixon's plot; for 17β-HSD1 inhibition mechanism / Ki: cofactor excess; for Ki: from Dixon plot
T3 sequence (P14061 1-328): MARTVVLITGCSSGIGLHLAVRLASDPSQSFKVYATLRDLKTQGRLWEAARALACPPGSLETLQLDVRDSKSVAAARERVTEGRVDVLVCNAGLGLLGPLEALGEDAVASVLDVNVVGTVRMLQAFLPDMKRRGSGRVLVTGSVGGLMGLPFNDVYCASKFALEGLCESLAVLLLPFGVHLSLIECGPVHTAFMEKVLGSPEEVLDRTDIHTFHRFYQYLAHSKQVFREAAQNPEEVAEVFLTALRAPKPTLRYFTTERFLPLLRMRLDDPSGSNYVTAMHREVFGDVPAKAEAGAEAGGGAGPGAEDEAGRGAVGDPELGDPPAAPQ
Protocol: as §1
Inhibitors that bind to the steroid site of 17β-HSD1 can bind to both the free enzyme and the binary enzyme–cofactor complex by random kinetic mechanism.
as §2, §3, §4
The incubation time was 2.5 min. The product 17β-estradiol (E2, 5) was extracted with ethyl acetate and isolated by a TLC method (details are published in our earlier reference).
as §5, §6, §7
(§8) The inhibitor compounds were preincubated with the appropriate placenta fraction in a volume of 4.0 µl at 37 °C for various time periods (2.5-40 min). Following this procedure, samples were diluted with the incubation medium to 50-fold. Enzyme activity measurements

[4] = biological target: T3, 17β-hydroxysteroid dehydrogenase type 1 (17β-HSD1); details: earlier paper of the authors; read-out: 17β-HSD1 IC50 ± SD; cited from earlier work
17β-HSD1 = biological target: T4, 17β-HSD1 (Homo sapiens, UniProt P14061); assay: 17β-HSD1 inhibition reversibility test (preincubation with placental cytosol, 50-fold dilution); format: biochemical; details: preincubation 10 μM, 2.5 and 20 min
T4 construct: from tissue; host or cells: human term placenta, cytosolic fraction
T4 sequence (P14061 1-328): T3 sequence (P14061 1-328)
Protocol: as §6, §7
as §8, with “measurements were started immediately for the 17β-HSD1 and after 20 min secondary incubation time to allow dissociation in the case of STS. […]” for “measurements”

aromatase enzyme = biological target: aromatase enzyme; set-up: method as in PMID 16039845; details: cited from earlier work

Structure (SMILES) | time in which irreversible binding to STS is nearly completed (steroid sulfatase (STS) [1]) [min] | STS binding reversibility (steroid sulfatase (STS) [1]) | STS inhibition mechanism (steroid sulfatase (STS) [2]) | IC50 (steroid sulfatase (STS) [2]) [µM] | Ki (steroid sulfatase (STS) [2]) [µM] | remaining activity at 10 µM (human aromatase) [%] | 17β-HSD1 Rel.conv. ± SD ([3]; 10 µM test compound, non-inhibited control 100%, mean ± SD, n = 3) [%] | STS affinity higher compared to the E1S substrate (steroid sulfatase (STS) [2]; from IC50 values) [fold] | STS affinity increased compared to E1 (steroid sulfatase (STS) [2]; from IC50 values) [fold] | IC50 [3] [µM] | IC50 [4] [µM] | 17β-HSD1 binding reversibility (17β-HSD1) | 17β-HSD1 inhibition mechanism [3] | Ki [3] [µM] | IC50 (aromatase enzyme) [µM] | IC50 (human aromatase) [µM] | Ki (aromatase enzyme) [µM] | enhancement in affinity to aromatase compared to E1 (aromatase enzyme) [fold]
C[C@]12CCC[C@H]1[C@@H]1CCc3c(cc(Cl)c(O)c3Cl)[C@H]1CC2 [16c, 2,4-bis-chloro-17-deoxy-13α-estrone] | ≤ 2.5 | irreversible | competitive | 1.3 ± 0.4 | 1.9 | 82 ± 12 | 53 ± 2 | – | – | – | – | – | – | – | – | – | – | –
C[C@]12CC[C@@H]3c4ccc(O)c(I)c4CC[C@H]3[C@@H]1CCC2=O [7a, 4-iodoestrone] | ≤ 2.5 | irreversible | competitive | 0.23 ± 0.09 | 0.36 | 88 ± 2 | – | 22 | 100 | 0.36 ± 0.25 | – | – | – | – | – | – | – | –
C[C@@]12CC[C@@H]3c4cc(I)c(O)c(I)c4CC[C@H]3[C@@H]1CCC2=O [12a] | – | – | – | 2.4 ± 0.5 | – | 91 ± 1 | – | – | – | 1 | 0.38 ± 0.08 | reversible | competitive | 0.94 | – | – | – | –
C[C@@]12CC[C@@H]3c4ccc(O)c(I)c4CC[C@H]3[C@@H]1CCC2=O [11a] | – | – | – | 6 ± 1.6 | – | 90 ± 7 | – | – | – | 0.38 | 1 ± 0.3 | reversible | competitive | 2.2 | – | – | – | –
C[C@]12CC[C@@H]3c4cc(Br)c(O)cc4CC[C@H]3[C@@H]1CCC2=O [6b, 2-Bromoestrone] | – | – | – | 2 ± 0.4 | – | – | – | – | – | 0.095 ± 0.031 | – | – | – | – | 2.4 | 8.7 ± 2.8 | – | –
C[C@]12CC[C@@H]3c4cc(Cl)c(O)cc4CC[C@H]3[C@@H]1CCC2=O [6c, 2-Chloroestrone] | – | – | – | 2.4 ± 0.4 | – | – | – | – | – | 0.18 ± 0.02 | – | – | – | – | – | 6 ± 1.2 | 0.13 | ~20
